Reference: patent US20130131062A1, “PYRIDAZINONES AND FURAN-CONTAINING COMPOUNDS” (priority 2006, published 2013)

What was measured:
H1650 = test: Non Small Cell Lung Cancer Proliferation Assay (Alamar Blue); format: cell-based, human; details: Homo sapiens, NCI-H1650, dose response 10 μM to 5 nM
Procedure: (§1) Non Small Cell Lung Cancer cell lines are grown and maintained in Corning 175 cm2 flasks in RPMI 1640 media supplemented with 10% FBS, 1% antibiotic solution, 1% additional glutamine and pyruvate. These cells have a doubling time of 1-2 days. All cell types are adherent and grow in colonies. The cells should be kept at a density between 50,000 cells/mL-500,000 cells/mL to provide for optimum growth and adequate nutrition. The cell line should be maintained at 37° C. in a humidified atmosphere with 5% CO2 in a sterile cell culture incubator.
(§2) To perform the assay, the Non Small Cell Lung Cancer lines are diluted in media and plated into 384 well microplates at a final density of 250 cells in 45 μL. To ensure consistency and minimal pipetting error, the cells are plated using the Multidrop 384 with the following settings: Rocker Switch set at 384, Volume 45 and Column 24.
(§3) Low Controls for this assay are made by treating Non Small Cell Lung Cancer cells with 5 ul of staurosporine at 250 uM in 10% DMSO and 1% SDS. [Final concentration in this assay is 25 uM staurosporine in 1% DMSO and 0.1% SDS.]
(§4) High Controls for this assay are made by treating Non Small Cell Lung Cancer cells with 5 ul of 10% DMSO. [Final concentration in this assay is 1% DMSO].
(§5) The remaining wells of the 384 microplate may be treated with different compounds depending on the study. Important Note: All compounds for testing in this assay should be done at the final concentration of 1% DMSO.
(§6) After addition, the cells are placed in cell culture incubator at 37° C. for 48 hours for complete treatment.
(§7) After drug treatment, cytotoxicity is measured by Alamar Blue reduction. 5 μL of Alamar Blue is added to the 384 microplates using the Flexdrop.
(§8) The cells are incubated for 48 hours at 37° C. to complete the Alamar Blue reduction.
(§9) The final step in the assay is to measure the amount of Alamar Blue reduction. […] The Alamar Blue fluorescence is measured at an excitation of 530 nm and emission of 590 nm.
(§10) For the NSCLC project, the cell based assay was screened against a small molecule library of approximately 200,000 compounds. The compound library is stored in our automated robotic freezer (Biophile) at −20° C. in 100% DMSO. Compound freeze and thaw cycles are kept to a minimum. Compounds for use are diluted into the appropriate concentration and plated into 384 well microplates using our custom built low volume 384-well head tool (TPS 384, Apricot Designs Inc., CA, USA). This assay was performed on a fully automated linear track robotic platform (CRS F3 Robot System, Thermo Electron Corp., Ontario, Canada) utilizing several integrated peripherals for plate handling, liquid dispensing, and readout detection. First, non-small cell lung cancer cell lines are dispensed into 384 well microplates (Corning #3712 Tissue Culture Treated Plate, Corning, N.Y., USA) with 5 μL of test compounds at 100 uM in 10% DMSO for screening studies or 1 mM in 10% DMSO to 50 nM in 10% DMSO for dose response studies. The microplates are then placed at 37° C. for 48 hours to complete treatment of cells with compounds. Next, 5 ul of alamar blue was added using a liquid dispenser (FlexDrop Precision Dispenser, Perkin Elmer, Mass., USA) and incubated for 48 hours at 37° C. The alamar blue prompt fluorescence was measured on Victor V (Victor^3 V, Perkin Elmer, Mass., USA) and output data files were loaded into ORIS (Oncology Research Informatics System, MSKCC, NY, USA), a screening data acquisition and analysis platform.

H1975 = test: as above; format: cell-based, human; details: Homo sapiens, NCI-H1975, dose response 10 μM to 5 nM
Procedure: as §1, §2, §3, §4, §5, §6, §7, §8, §9, §10

H2030 = test: as above; format: cell-based, human; details: Homo sapiens, NCI-H2030, dose response 10 μM to 5 nM
Procedure: (§11) These cells have a doubling time of 1-2 days. All cell types are adherent and grow in colonies. The cells should be kept at a density between 50,000 cells/mL-500,000 cells/mL to provide for optimum growth and adequate nutrition. The cell line should be maintained at 37° C. in a humidified atmosphere with 5% CO2 in a sterile cell culture incubator.
(§12) To perform the assay, the Non Small Cell Lung Cancer lines are diluted in media and plated into 384 well microplates at a final density of 250 cells in 45 μL.
as §4
(§13) Important Note: All compounds for testing in this assay should be done at the final concentration of 1% DMSO.
as §6
(§14) After drug treatment, cytotoxicity is measured by Alamar Blue reduction.
as §8, §9
as §10, with “Compounds for use are diluted into the appropriate concentration and plated into 384 well microplates using our custom built low volume 384-well head tool (TPS 384, Apricot Designs Inc., CA, USA).” left out, “First, non-small cell lung cancer cell lines are dispensed into 384 well microplates (Corning #3712 Tissue Culture Treated Plate, Corning, N.Y., USA) with 5 μL of test compounds at 100 uM in 10% DMSO for screening studies or 1 mM in 10% DMSO to 50 nM in 10% DMSO for dose response studies.” left out

H3255 = test: as above; format: cell-based, human; details: Homo sapiens, NCI-H3255, dose response 10 μM to 5 nM
Procedure: as §11, §12, §4, §13, §6, §14, §8, §9
as §10, with “Compounds for use are diluted into the appropriate concentration and plated into 384 well microplates using our custom built low volume 384-well head tool (TPS 384, Apricot Designs Inc., CA, USA).” left out, “First, non-small cell lung cancer cell lines are dispensed into 384 well microplates (Corning #3712 Tissue Culture Treated Plate, Corning, N.Y., USA) with 5 μL of test compounds at 100 uM in 10% DMSO for screening studies or 1 mM in 10% DMSO to 50 nM in 10% DMSO for dose response studies.” left out

H827 = test: Non Small Cell Lung Cancer Proliferation Assay (Alamar Blue), dose response; details: Homo sapiens, read-out: H827 Dose Response (uM)
Procedure: (§16) This assay was performed on a fully automated linear track robotic platform (CRS F3 Robot System, Thermo Electron Corp., Ontario, Canada) utilizing several integrated peripherals for plate handling, liquid dispensing, and readout detection. […] The microplates are then placed at 37° C. for 48 hours to complete treatment of cells with compounds. Next, 5 ul of alamar blue was added using a liquid dispenser (FlexDrop Precision Dispenser, Perkin Elmer, Mass., USA) and incubated for 48 hours at 37° C. The alamar blue prompt fluorescence was measured on Victor V (Victor^3 V, Perkin Elmer, Mass., USA) and output data files were loaded into ORIS (Oncology Research Informatics System, MSKCC, NY, USA), a screening data acquisition and analysis platform. […]

H1118 = test: as above; details: Homo sapiens, read-out: H1118 Dose Response (uM)
Procedure: as §16

H358 = test: as above; details: Homo sapiens, NCI-H358, read-out: H358 Dose Response (uM)
Procedure: as §16

H1734 = test: as above; details: Homo sapiens, NCI-H1734, read-out: H1734 Dose Response (uM)
Procedure: as §16

in vitro = details: human
Procedure: (§15) NHBE (normal human bronchiolar epithelial cells) are primary cells obtained from donor lungs and commercially available from Cambrex. The HPLID (human peripheral lung epithelial) cell line has been immortalized with the SV40 large T-antigen. WI-38: human lung fibroblast cell line. HPLID, NHBE and WI-38 cells will serve as controls in the chemical screens. WT: wildtype; WT*: over-expressed wildtype.
Compounds were tested in dose response studies from 10 μM to 5 nM against several non small cell lung cancer lines: H358, H827, H1118, H1650, H1734, H1975, H2030, and H3255, and were also studied in a 72 hour cytotoxicity assay against the NHBE and WI-38 cell lines.

HPL1D = test: Sensitivity of cell proliferation to erlotinib; format: cell-based; details: Homo sapiens, read-out: IC50 (Erlotinib) HPL1D; EGFR WT, KRAS WT
Excerpt: as §15

| IC50 (H1650) [µM] | IC50 (H1975) [µM] | IC50 (H2030) [µM] | IC50 (H3255) [µM] | IC50 (H827) [µM] | IC50 (H1118) [µM] | IC50 (H358) [µM] | IC50 (H1734) [µM] | IC50 at 72 h (in vitro) [µM] | Structure (SMILES) | IC50 at 72 h (in vitro; NHBE CytoTox (uM)) [µM] | IC50 (HPL1D) [µM] |
| --- | --- | --- | --- | --- | --- | --- | --- | --- | --- | --- | --- |
| > 10 | > 10 | > 10 | > 10 | > 10 | > 10 | > 10 | > 10 | > 10 | CN/N=C1\C=NN(c2ccccc2)C(=O)C1Cl (centres unmarked) [compound 257024] | > 10 | – |
| – | – | – | – | – | – | – | – | – | C#Cc1cccc(Nc2ncnc3cc(OCCOC)c(OCCOC)cc23)c1 [Erlotinib, erlotinib] | – | 10 |
